Bridge positions count the residues as written; N and C are the ends. Square brackets hold non-standard residues; d marks the D form. Peptide text beside a SMILES is read from it. * marks the point of attachment. ξ: configuration not given here. Trp(1-CH2COOH) = N[C@@H](Cc1cn(CC(=O)O)c2ccccc12)C(=O)O; Phe(4-COOH) = N[C@@H](Cc1ccc(C(=O)O)cc1)C(=O)O; Bip = N[C@@H](Cc1ccc(-c2ccccc2)cc1)C(=O)O; Phe(3-Br) = N[C@@H](Cc1cccc(Br)c1)C(=O)O; Phe(3-CN) = N#Cc1cccc(C[C@H](N)C(=O)O)c1; Phe(3-Me) = Cc1cccc(C[C@H](N)C(=O)O)c1; Val(3-OH) = CC(C)(O)[C@H](N)C(=O)O; 4Pal = N[C@@H](Cc1ccncc1)C(=O)O; Cha = N[C@@H](CC1CCCCC1)C(=O)O; Cit = NC(=O)NCCC[C@H](N)C(=O)O; Ile(3ξ) = CCC(C)[C@H](N)C(=O)O; NMeOrn = CN[C@@H](CCCN)C(=O)O; Thr(3ξ) = CC(O)[C@H](N)C(=O)O; Pip = O=C(O)[C@@H]1CCCCN1; hSer = N[C@@H](CCO)C(=O)O; Carboxymethyl = O=C(O)C*; NMeA = CN[C@@H](C)C(=O)O; Pra = C#CC[C@H](N)C(=O)O; Dab = NCC[C@H](N)C(=O)O; Dap = NC[C@H](N)C(=O)O; ξC = NC(CS)C(=O)O
Target: T1, PE-labeled human PD-L1-Ig binding to Jurkat cell line over-expressing human PD-1 (Jurkat-PD-1) (Homo sapiens, UniProt Q15116)
T1 construct: expressed in transfected cells; host or cells: Jurkat
Test: Jurkat-PD-1 Cell Binding High-Content Screening Assay (CBA): Method 1
Details: Jurkat-hPD-1 cells, PE-labeled PD-L1-Ig 20 nM final; read-out: Jurkat HPDL1 PD1 IC50 (uM) (Method 1)

T1 sequence (Q15116 25-288): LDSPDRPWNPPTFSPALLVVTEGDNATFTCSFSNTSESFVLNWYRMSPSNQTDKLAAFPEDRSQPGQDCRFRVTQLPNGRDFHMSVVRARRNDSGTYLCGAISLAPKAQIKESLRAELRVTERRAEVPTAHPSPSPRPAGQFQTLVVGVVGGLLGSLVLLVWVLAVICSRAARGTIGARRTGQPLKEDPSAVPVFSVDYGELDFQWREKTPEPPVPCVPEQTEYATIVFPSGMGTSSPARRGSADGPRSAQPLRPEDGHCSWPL

IC50 | Compound
0.04 µM | CC[C@H](C)[C@@H]1NC(=O)[C@H](Cc2ccc(-c3ccccc3)cc2)NC(=O)[C@H](C(C)C)NC(=O)[C@H](Cc2c[nH]c3ccccc23)NC(=O)[C@H](CC(=O)O)NC(=O)[C@H](Cc2cccc(C#N)c2)NC(=O)[C@H](Cc2ccncc2)NC(=O)CSC[C@@H](C(=O)N[C@@H](C)C(N)=O)NC(=O)[C@H]([C@@H](C)O)NC(=O)[C@H](C(C)C)NC(=O)[C@H](CC(C)C)NC(=O)[C@H](CCN)NC(=O)[C@@H](CC(C)C)NC(=O)[C@H](C)N(C)C1=O [Compound 1407] ({CH2CO}-[4Pal][Phe(3-CN)]DWV[Bip]I[NMeA][dL][Dab]LVTCA-NH2; thioether N-14)
0.01 µM | CCC(C)[C@@H]1NC(=O)[C@H](Cc2ccc(-c3ccccc3)cc2)NC(=O)[C@H](CC(C)C)NC(=O)[C@H](Cc2c[nH]c3ccccc23)NC(=O)[C@H](CC(=O)O)NC(=O)[C@H](Cc2ccc(C(=O)O)cc2)NC(=O)[C@H](Cc2ccc(OCC(=O)O)cc2)NC(=O)CSC[C@@H](C(=O)N[C@@H](CCN)C(N)=O)NC(=O)[C@H]([C@@H](C)O)NC(=O)[C@H](C(C)C)NC(=O)[C@H](CC2CCCCC2)NC(=O)[C@H](CCN)NC(=O)[C@@H](CC(C)C)NC(=O)[C@H](C)N(C)C1=O (stereo partly drawn) [Compound 1926] ({CH2CO}-Y(Carboxymethyl)[Phe(4-COOH)]DWL[Bip][Ile(3ξ)][NMeA][dL][Dab][Cha]VTC[Dab]-NH2; thioether N-14)
0.1 µM | CC(C)C[C@@H]1NC(=O)[C@H](CCCNC(=N)N)NC(=O)[C@H](Cc2cn(CC(=O)O)c3ccccc23)NC(=O)[C@H](C)N(C)C(=O)[C@H](CCCNC(=N)N)NC(=O)[C@H](Cc2ccc(-c3ccccc3)cc2)NC(=O)[C@H](C(C)C)NC(=O)[C@H](Cc2c[nH]c3ccccc23)NC(=O)[C@H](CC(=O)O)NC(=O)[C@H](Cc2ccc(O)cc2)NC(=O)[C@H](Cc2ccccc2)NC(=O)CSC[C@@H](C(=O)NCC(N)=O)NC(=O)[C@H](CO)NC(=O)[C@H](C(C)C)NC1=O [Compound 1011] ({CH2CO}-FYDWV[Bip]R[NMeA][Trp(1-CH2COOH)]RLVSCG-NH2; thioether N-14)
0.7 µM | Cc1cccc(C[C@@H]2NC(=O)[C@H](CC(=O)O)NC(=O)[C@H](Cc3ccc(OCC(=O)O)cc3)NC(=O)[C@H](Cc3ccc(OCC(=O)O)cc3)NC(=O)CSC[C@@H](C(=O)N[C@@H](C)C(N)=O)NC(=O)[C@H](CO)NC(=O)[C@H](Cc3ccccc3)NC(=O)[C@H](CC(C)C)NC(=O)[C@H](CC(N)=O)NC(=O)[C@@H](CC(C)C)NC(=O)[C@H](C)N(C)C(=O)[C@H](Cc3ccccc3)NC(=O)[C@H](Cc3ccc(-c4ccccc4)cc3)NC(=O)[C@H](CC(C)C)NC2=O)c1 [Compound 1587] ({CH2CO}-Y(Carboxymethyl)Y(Carboxymethyl)D[Phe(3-Me)]L[Bip]F[NMeA][dL]NLFSCA-NH2; thioether N-14)
0.03 µM | CCC(C)[C@@H]1NC(=O)[C@H](Cc2ccc(-c3ccccc3)cc2)NC(=O)[C@H](C(C)C)NC(=O)[C@H](Cc2c[nH]c3ccccc23)NC(=O)[C@H](CC(=O)O)NC(=O)[C@H](Cc2ccc(O)cc2)NC(=O)[C@H](Cc2ccncc2)NC(=O)CSCC(C(=O)N[C@@H](CCCCN)C(=O)O)NC(=O)[C@H](C(C)O)NC(=O)[C@H](C(C)C)NC(=O)[C@H](CC2CCCCC2)NC(=O)[C@H](CC(N)=O)NC(=O)[C@@H](CC(C)C)NC(=O)[C@H](C)N(C)C1=O (stereo partly drawn) [Compound 2215] ({CH2CO}-[4Pal]YDWV[Bip][Ile(3ξ)][NMeA][dL]N[Cha]V[Thr(3ξ)][ξC]K-OH; thioether N-14)
0.02 µM | Cc1cccc(C[C@@H]2NC(=O)[C@H](CC(=O)O)NC(=O)[C@H](Cc3ccc(OCC(=O)O)cc3)NC(=O)[C@H](Cc3ccncc3)NC(=O)CSC[C@@H](C(=O)N[C@@H](CCN)C(N)=O)NC(=O)[C@H](CCC(N)=O)NC(=O)[C@H](C(C)(C)O)NC(=O)[C@H](CC3CCCCC3)NC(=O)[C@H](CCN)NC(=O)[C@@H](CC(C)C)NC(=O)[C@H](C)N(C)C(=O)[C@H](Cc3ccc(OCC(=O)O)cc3)NC(=O)[C@H](Cc3ccc(-c4ccccc4)cc3)NC(=O)[C@H](Cc3ccc(OCC(=O)O)cc3)NC2=O)c1 [Compound 2192] ({CH2CO}-[4Pal]Y(Carboxymethyl)D[Phe(3-Me)]Y(Carboxymethyl)[Bip]Y(Carboxymethyl)[NMeA][dL][Dab][Cha][Val(3-OH)]QC[Dab]-NH2; thioether N-14)
0.12 µM | CC(C)C[C@@H]1NC(=O)[C@H](CC(N)=O)NC(=O)[C@@H](CC(C)C)NC(=O)[C@H](C)N(C)C(=O)[C@H](C(C)C)NC(=O)[C@H](Cc2ccc(-c3ccccc3)cc2)NC(=O)[C@H](CCN)NC(=O)[C@H](Cc2c[nH]c3ccccc23)NC(=O)[C@H](CC(=O)O)NC(=O)[C@H](Cc2ccc(O)cc2)NC(=O)[C@H](Cc2ccccc2)NC(=O)CSC[C@@H](C(=O)N[C@@H](C)C(N)=O)NC(=O)[C@H](CO)NC(=O)[C@H](CC(=O)O)NC1=O [Compound 2026] ({CH2CO}-FYDW[Dab][Bip]V[NMeA][dL]NLDSCA-NH2; thioether N-14)
0.02 µM | CCC(C)[C@@H]1NC(=O)[C@H](Cc2ccc(-c3ccccc3)cc2)NC(=O)[C@H](CC(C)C)NC(=O)[C@H](Cc2c[nH]c3ccccc23)NC(=O)[C@H](CC(=O)O)NC(=O)[C@H](Cc2ccc(C(=O)O)cc2)NC(=O)[C@H](Cc2ccc(OCC(=O)O)cc2)NC(=O)CSC[C@@H](C(=O)N[C@@H](CCN)C(N)=O)NC(=O)[C@H](CO)NC(=O)[C@H](C(C)C)NC(=O)[C@H](CC2CCCCC2)NC(=O)[C@H](CCN)NC(=O)[C@@H](CC(C)C)NC(=O)[C@H](C)N(C)C1=O (stereo partly drawn) [Compound 1910] ({CH2CO}-Y(Carboxymethyl)[Phe(4-COOH)]DWL[Bip][Ile(3ξ)][NMeA][dL][Dab][Cha]VSC[Dab]-NH2; thioether N-14)
0.05 µM | CC(C)C[C@@H]1NC(=O)[C@H](CCO)NC(=O)[C@@H](CC(C)C)NC(=O)[C@H](C)N(C)C(=O)[C@H](CCCNC(N)=O)NC(=O)[C@H](Cc2ccc(-c3ccccc3)cc2)NC(=O)[C@H](C(C)C)NC(=O)[C@H](Cc2c[nH]c3ccccc23)NC(=O)[C@H](CC(=O)O)NC(=O)[C@H](Cc2ccc(O)cc2)NC(=O)[C@H](Cc2ccccc2)NC(=O)CSC[C@@H](C(=O)N[C@@H](C)C(N)=O)NC(=O)[C@H](C(C)O)NC(=O)[C@H](C(C)C)NC1=O (stereo partly drawn) [Compound 2032] ({CH2CO}-FYDWV[Bip][Cit][NMeA][dL][hSer]LV[Thr(3ξ)]CA-NH2; thioether N-14)
0.06 µM | CC(C)C[C@@H]1NC(=O)[C@H](CCN)NC(=O)[C@@H](CC(C)C)NC(=O)[C@H](C)N(C)C(=O)[C@H](CCCNC(=N)N)NC(=O)[C@H](Cc2ccc(-c3ccccc3)cc2)NC(=O)[C@H](C(C)C)NC(=O)[C@H](Cc2cccc(Br)c2)NC(=O)[C@H](CC(=O)O)NC(=O)[C@H](Cc2ccc(O)cc2)NC(=O)[C@H](CC(N)=O)NC(=O)CSC[C@@H](C(=O)N[C@@H](C)C(N)=O)NC(=O)[C@H]([C@@H](C)O)NC(=O)[C@H](C(C)C)NC1=O [Compound 1217] ({CH2CO}-NYD[Phe(3-Br)]V[Bip]R[NMeA][dL][Dab]LVTCA-NH2; thioether N-14)
0.05 µM | CCC(C)[C@@H]1NC(=O)[C@H](Cc2ccc(-c3ccccc3)cc2)NC(=O)[C@H](C(C)C)NC(=O)[C@H](Cc2c[nH]c3ccccc23)NC(=O)[C@H](CC(=O)O)NC(=O)[C@H](Cc2ccc(O)cc2)NC(=O)[C@H](CC(N)=O)NC(=O)CSC[C@@H](C(=O)N[C@@H](C)C(N)=O)NC(=O)[C@H](CO)NC(=O)[C@H](C(C)C)NC(=O)[C@H](CC(C)C)NC(=O)[C@H](CCN)NC(=O)[C@@H](CC(C)C)NC(=O)[C@H](C)N(C)C1=O (stereo partly drawn) [Compound 2070] ({CH2CO}-NYDWV[Bip][Ile(3ξ)][NMeA][dL][Dab]LVSCA-NH2; thioether N-14)
0.19 µM | Cc1cccc(C[C@@H]2NC(=O)[C@H](CC(=O)O)NC(=O)[C@H](Cc3ccc(OCC(=O)O)cc3)NC(=O)[C@H](CN)NC(=O)CSC[C@@H](C(N)=O)NC(=O)[C@H](CCC(N)=O)NC(=O)[C@H](C(C)C)NC(=O)[C@H](CC3CCCCC3)NC(=O)[C@H](CCN)NC(=O)[C@@H](CC(C)C)NC(=O)[C@@H]3CCCCN3C(=O)[C@H](Cc3ccc(OCC(=O)O)cc3)NC(=O)[C@H](Cc3ccc(-c4ccccc4)cc3)NC(=O)[C@H](Cc3ccc(OCC(=O)O)cc3)NC2=O)c1 [Compound 1896] ({CH2CO}-[Dap]Y(Carboxymethyl)D[Phe(3-Me)]Y(Carboxymethyl)[Bip]Y(Carboxymethyl)[Pip][dL][Dab][Cha]VQC-NH2; thioether N-14)
0.67 µM | Cc1cccc(C[C@@H]2NC(=O)[C@H](CC(=O)O)NC(=O)[C@H](Cc3ccc(OCC(=O)O)cc3)NC(=O)[C@H](Cc3ccncc3)NC(=O)CSC[C@@H](C(=O)N[C@@H](CCN)C(N)=O)NC(=O)[C@H](CO)NC(=O)[C@H](C(C)(C)O)NC(=O)[C@H](CC3CCCCC3)NC(=O)[C@H](CCN)NC(=O)[C@@H](CC(C)C)NC(=O)[C@H](CCCN)N(C)C(=O)[C@H](Cc3ccc(OCC(=O)O)cc3)NC(=O)[C@H](Cc3ccc(-c4ccccc4)cc3)NC(=O)[C@H](Cc3ccc(OCC(=O)O)cc3)NC2=O)c1 [Compound 1836] ({CH2CO}-[4Pal]Y(Carboxymethyl)D[Phe(3-Me)]Y(Carboxymethyl)[Bip]Y(Carboxymethyl)[NMeOrn][dL][Dab][Cha][Val(3-OH)]SC[Dab]-NH2; thioether N-14)
0.01 µM | C#CC[C@H](NC(=O)[C@@H](C)NC(=O)[C@@H]1CSCC(=O)N[C@@H](Cc2c[nH]cn2)C(=O)N[C@@H](Cc2ccc(OCC(=O)O)cc2)C(=O)N[C@@H](CC(=O)O)C(=O)N[C@@H](Cc2c[nH]c3ccccc23)C(=O)N[C@@H](C(C)C)C(=O)N[C@@H](Cc2ccc(-c3ccccc3)cc2)C(=O)N[C@@H](C(C)C)C(=O)N(C)[C@@H](C)C(=O)N[C@H](CC(C)C)C(=O)N[C@@H](CCN)C(=O)N[C@@H](CC2CCCCC2)C(=O)N[C@@H](C(C)(C)O)C(=O)N[C@@H](CO)C(=O)N1)C(N)=O [Compound 1942] ({CH2CO}-HY(Carboxymethyl)DWV[Bip]V[NMeA][dL][Dab][Cha][Val(3-OH)]SC[dA][Pra]-NH2; thioether N-14)

From US20240409585A1, “MACROCYCLIC IMMUNOMODULATORS” (priority 2021, published 2024)
